From ChEMBL document CHEMBL4295262, “Evaluation of the utility of stem-cell derived cardiomyocytes for drug proarrhythmic potential” (2019)

What was measured:
Details in all cases: human, ipsc-cm
[1] = (§1) Electrical activity assay on cell lines treated with a given drug. DMSO was used as a vehicle and a control, unblinded dofetilide was used as a control.; format: ADME, cell-based; design: FPDc: unit not given here
[2] = as §1
[3] = as §1; remark: listed apart in the source
[4] = as §1; format: ADME, cell-based
[5] = as §1; format: ADME, cell-based; remark: listed apart in the source
[6] = as §1; remark: listed apart in the source
[7] = 0.03 µM, concentration (um) 0.03 uM
[8] = 0.09507 µM, concentration (um) 0.0950736 uM
[9] = 0.3004 µM, concentration (um) 0.300433 uM
[10] = 0.9494 µM, concentration (um) 0.949367 uM
[11] = 0.1 µM, concentration (um) 0.1 uM
[12] = 10 µM, concentration (um) 10 uM
[13] = 100 µM, concentration (um) 100 uM
[14] = 0.01 µM, concentration (um) 0.01 uM

For `Cc1nccn1CC1CCc2c(c3ccccc3n2C)C1=O` (centres undefined) [ONDANSETRON], the FPD measurement [1, 7] was 5 Values Out Of 5 Were Excluded Due To Quiescence Or 0 Apdc, the FPDc [1, 7] was 29.28 and the FPDc ([1]; 0.3 µM, concentration (um) 0.3 uM) was 58.03. The FPDc ([1]; 3 µM, concentration (um) 3 uM) was 37.01, the FPDc ([1]; 30 µM, concentration (um) 30 uM) was 17.75 and the FPD measurement ([2]; 0.03 µM) was 54.59 FPDc. The FPDc ([2]; 0.03 µM) was 54.59, the FPD measurement ([2]; 0.3 µM) was 58.58 FPDc and the FPDc ([2]; 0.3 µM) was 58.58. For the same molecule, the FPD measurement ([2]; 3 µM) was 68.22 FPDc, the FPDc ([2]; 3 µM) was 68.22 and the FPD measurement ([2]; 30 µM) was “More Than Half The Wells Had A Quiescence Event Or Fpdc Readings Of 0”. The FPDc ([2]; 30 µM) was “More Than Half The Wells Had A Quiescence Event Or Fpdc Readings Of 0”, the FPD measurement ([3]; 0.03 µM) was 1 Values Out Of 1 Were Excluded Due To Quiescence Or 0 Fpdc and the FPDc ([3]; 0.03 µM) was 1 Values Out Of 1 Were Excluded Due To Quiescence Or 0 Fpdc. The FPD measurement ([3]; 0.3 µM) was 1 Values Out Of 1 Were Excluded Due To Quiescence Or 0 Fpdc, the FPDc ([3]; 0.3 µM) was 1 Values Out Of 1 Were Excluded Due To Quiescence Or 0 Fpdc and the FPD measurement ([3]; 3 µM) was 1 Values Out Of 1 Were Excluded Due To Quiescence Or 0 Fpdc. For the same molecule, the FPDc ([3]; 3 µM) was 1 Values Out Of 1 Were Excluded Due To Quiescence Or 0 Fpdc, the FPD measurement ([3]; 30 µM) was 1 Values Out Of 1 Were Excluded Due To Quiescence Or 0 Fpdc and the FPDc ([3]; 30 µM) was 1 Values Out Of 1 Were Excluded Due To Quiescence Or 0 Fpdc.
In the case of `CC/C(=C(\c1ccccc1)c1ccc(OCCN(C)C)cc1)c1ccccc1` [TAMOXIFEN], the FPD measurement [1, 8] is reported as 5 Values Out Of 5 Were Excluded Due To Quiescence Or 0 Apdc, the FPDc [1, 8] is reported as 53.17 and the FPD measurement [1, 9] is reported as 5 Values Out Of 5 Were Excluded Due To Quiescence Or 0 Apdc. The FPDc [1, 9] was 49.96, the FPD measurement [1, 10] was 5 Values Out Of 5 Were Excluded Due To Quiescence Or 0 Apdc and the FPDc [1, 10] was 53.33. For the same molecule, the FPD measurement ([1]; 3 µM, concentration (um) 3 uM) was 5 Values Out Of 5 Were Excluded Due To Quiescence Or 0 Apdc, the FPDc ([1]; 3 µM, concentration (um) 3 uM) was 51.88 and the FPD measurement [4, 8] was 46.23 FPDc. For the same molecule, the FPDc [4, 8] was 6 Values Out Of 6 Were Excluded Due To Quiescence Or 0 Fpdc, the FPD measurement [4, 9] was 47.89 FPDc and the FPDc [4, 9] was 6 Values Out Of 6 Were Excluded Due To Quiescence Or 0 Fpdc. The FPD measurement [4, 10] was 110.7 FPDc, the FPDc [4, 10] was 6 Values Out Of 6 Were Excluded Due To Quiescence Or 0 Fpdc and the FPDc ([4]; 3 µM, concentration (um) 3 uM) was 6 Values Out Of 6 Were Excluded Due To Quiescence Or 0 Fpdc. For the same molecule, the FPD measurement [5, 8] was 5 Values Out Of 5 Were Excluded Due To Quiescence Or 0 Apdc, the FPDc [5, 8] was 19.16 and the FPD measurement [5, 9] was 5 Values Out Of 5 Were Excluded Due To Quiescence Or 0 Apdc. For the same molecule, the FPDc [5, 9] was 19.98, the FPD measurement [5, 10] was 5 Values Out Of 5 Were Excluded Due To Quiescence Or 0 Apdc and the FPDc [5, 10] was 19.22. The FPD measurement ([5]; 3 µM, concentration (um) 3 uM) was 5 Values Out Of 5 Were Excluded Due To Quiescence Or 0 Apdc and the FPDc ([5]; 3 µM, concentration (um) 3 uM) was 16.9.
For `COc1ccccc1OCC(O)CN1CCN(CC(=O)Nc2c(C)cccc2C)CC1` (centres undefined) [RANOLAZINE], the FPDc [1, 11] was 63.44, the FPD measurement ([1]; 1 µM, concentration (um) 1 uM) was 5 Values Out Of 5 Were Excluded Due To Quiescence Or 0 Apdc and the FPDc ([1]; 1 µM, concentration (um) 1 uM) was 57.19. For the same molecule, the FPDc [1, 12] was 48.79, the FPDc [1, 13] was 47.75 and the FPD measurement [4, 11] was 51.73 FPDc. The FPDc [4, 11] was 6 Values Out Of 6 Were Excluded Due To Quiescence Or 0 Fpdc, the FPD measurement ([4]; 1 µM, concentration (um) 1 uM) was 54.52 FPDc and the FPDc ([4]; 1 µM, concentration (um) 1 uM) was 6 Values Out Of 6 Were Excluded Due To Quiescence Or 0 Fpdc. The FPD measurement [4, 12] was 75.35 FPDc, the FPDc [4, 12] was 6 Values Out Of 6 Were Excluded Due To Quiescence Or 0 Fpdc and the FPDc [4, 13] was 6 Values Out Of 6 Were Excluded Due To Quiescence Or 0 Fpdc. For the same molecule, the FPD measurement [5, 11] was 5 Values Out Of 5 Were Excluded Due To Quiescence Or 0 Apdc, the FPDc [5, 11] was 23.9 and the FPD measurement ([5]; 1 µM, concentration (um) 1 uM) was 5 Values Out Of 5 Were Excluded Due To Quiescence Or 0 Apdc. For the same molecule, the FPDc ([5]; 1 µM, concentration (um) 1 uM) was 22.6, the FPD measurement [5, 12] was 5 Values Out Of 5 Were Excluded Due To Quiescence Or 0 Apdc and the FPDc [5, 12] was 23.41. For the same molecule, the FPD measurement [5, 13] was “More Than Half The Wells Had A Quiescence Event Or Apdc Readings Of 0”, the FPDc [5, 13] was “More Than Half The Wells Had A Quiescence Event Or Fpdc Readings Of 0” and the APDc ([6]; 0.1 µM) was 65.99. It also gave an FPD measurement ([6]; 0.1 µM) of 65.99 FPDc, an APDc ([6]; 1 µM) of 53.66 and an FPD measurement ([6]; 1 µM) of 53.66 FPDc. For the same molecule, the APDc ([6]; 10 µM) was 57.23, the FPD measurement ([6]; 10 µM) was 57.23 FPDc and the APDc ([6]; 100 µM) was 60.49. For the same molecule, the FPD measurement ([6]; 100 µM) was 60.49 FPDc.
With `CC(C)NCC(O)c1ccc(NS(C)(=O)=O)cc1` (centres undefined) [SOTALOL] the FPD measurement [1, 11] was 5 Values Out Of 5 Were Excluded Due To Quiescence Or 0 Apdc, the FPDc [1, 11] was 44.43 and the FPD measurement ([1]; 1 µM, concentration (um) 1 uM) was 5 Values Out Of 5 Were Excluded Due To Quiescence Or 0 Apdc. For the same molecule, the FPDc ([1]; 1 µM, concentration (um) 1 uM) was 41.07, the FPD measurement [1, 12] was 5 Values Out Of 5 Were Excluded Due To Quiescence Or 0 Apdc and the FPDc [1, 12] was 57.04. The FPD measurement [1, 13] was 5 Values Out Of 5 Were Excluded Due To Quiescence Or 0 Apdc, the FPDc [1, 13] was 45.01 and the FPD measurement [4, 11] was 50.96 FPDc. For the same molecule, the FPDc [4, 11] was 6 Values Out Of 6 Were Excluded Due To Quiescence Or 0 Fpdc, the FPD measurement ([4]; 1 µM, concentration (um) 1 uM) was 54.95 FPDc and the FPDc ([4]; 1 µM, concentration (um) 1 uM) was 6 Values Out Of 6 Were Excluded Due To Quiescence Or 0 Fpdc. The FPD measurement [4, 12] was 164 FPDc, the FPDc [4, 12] was 6 Values Out Of 6 Were Excluded Due To Quiescence Or 0 Fpdc and the FPDc [4, 13] was 6 Values Out Of 6 Were Excluded Due To Quiescence Or 0 Fpdc. For the same molecule, the FPD measurement [5, 11] was 5 Values Out Of 5 Were Excluded Due To Quiescence Or 0 Apdc, the FPDc [5, 11] was 22.36 and the FPD measurement ([5]; 1 µM, concentration (um) 1 uM) was 5 Values Out Of 5 Were Excluded Due To Quiescence Or 0 Apdc. For the same molecule, the FPDc ([5]; 1 µM, concentration (um) 1 uM) was 20.88, the FPD measurement [5, 12] was 5 Values Out Of 5 Were Excluded Due To Quiescence Or 0 Apdc and the FPDc [5, 12] was 24.73. For the same molecule, the FPD measurement [5, 13] was “More Than Half The Wells Had A Quiescence Event Or Apdc Readings Of 0”, the FPDc [5, 13] was “More Than Half The Wells Had A Quiescence Event Or Fpdc Readings Of 0” and the APDc ([6]; 0.1 µM) was 62.02. It also gave an FPD measurement ([6]; 0.1 µM) of 62.02 FPDc, an APDc ([6]; 1 µM) of 63.35 and an FPD measurement ([6]; 1 µM) of 63.35 FPDc. The APDc ([6]; 10 µM) was 71.54, the FPD measurement ([6]; 10 µM) was 71.54 FPDc and the APDc ([6]; 100 µM) was 79.39. For the same molecule, the FPD measurement ([6]; 100 µM) was 79.39 FPDc.
In the case of `COc1cc2c(Nc3ccc(Br)cc3F)ncnc2cc1OCC1CCN(C)CC1` [VANDETANIB], the FPD measurement [1, 14] is reported as 5 Values Out Of 5 Were Excluded Due To Quiescence Or 0 Apdc, the FPDc [1, 14] is reported as 55.57 and the FPD measurement [1, 11] is reported as 5 Values Out Of 5 Were Excluded Due To Quiescence Or 0 Apdc. The FPDc [1, 11] was 48.34, the FPD measurement ([1]; 1 µM, concentration (um) 1 uM) was 5 Values Out Of 5 Were Excluded Due To Quiescence Or 0 Apdc and the FPDc ([1]; 1 µM, concentration (um) 1 uM) was 57.73. For the same molecule, the FPD measurement [1, 12] was 5 Values Out Of 5 Were Excluded Due To Quiescence Or 0 Apdc, the FPDc [1, 12] was 73.71 and the FPD measurement [4, 14] was 50.93 FPDc. The FPDc [4, 14] was 6 Values Out Of 6 Were Excluded Due To Quiescence Or 0 Fpdc, the FPD measurement [4, 11] was 55.37 FPDc and the FPDc [4, 11] was 6 Values Out Of 6 Were Excluded Due To Quiescence Or 0 Fpdc. For the same molecule, the FPD measurement ([4]; 1 µM, concentration (um) 1 uM) was 118.9 FPDc, the FPDc ([4]; 1 µM, concentration (um) 1 uM) was 6 Values Out Of 6 Were Excluded Due To Quiescence Or 0 Fpdc and the FPDc [4, 12] was 6 Values Out Of 6 Were Excluded Due To Quiescence Or 0 Fpdc. For the same molecule, the FPD measurement [5, 14] was 5 Values Out Of 5 Were Excluded Due To Quiescence Or 0 Apdc, the FPDc [5, 14] was 21.62 and the FPD measurement [5, 11] was 5 Values Out Of 5 Were Excluded Due To Quiescence Or 0 Apdc. For the same molecule, the FPDc [5, 11] was 20.73, the FPD measurement ([5]; 1 µM, concentration (um) 1 uM) was 5 Values Out Of 5 Were Excluded Due To Quiescence Or 0 Apdc and the FPDc ([5]; 1 µM, concentration (um) 1 uM) was 22.97. For the same molecule, the FPD measurement [5, 12] was 5 Values Out Of 5 Were Excluded Due To Quiescence Or 0 Apdc, the FPDc [5, 12] was 5 Values Out Of 5 Were Excluded Due To Quiescence Or 0 Fpdc and the APDc ([6]; 0.01 µM) was 51.06. It also gave an FPD measurement ([6]; 0.01 µM) of 51.06 FPDc, an APDc ([6]; 0.1 µM) of 61.45 and an FPD measurement ([6]; 0.1 µM) of 61.45 FPDc. For the same molecule, the APDc ([6]; 1 µM) was 63.98, the FPD measurement ([6]; 1 µM) was 63.98 FPDc and the APDc ([6]; 10 µM) was 78.14. For the same molecule, the FPD measurement ([6]; 10 µM) was 78.14 FPDc.
